The record followed here is patent US11485734B2, “Beta-carbolines as positive allosteric modulators of the human serotonin receptor 2C (5-HT2C)” (Northwestern University, priority 2018, dated 2022).

Assay [1] deals with mice. The experiment in a line: Porsolt Forced Swim Test (FST) in PCP-treated mice. To be noted: AJC-61 2 mg/kg, PCP 10 mg/kg i.p. 7 days b.i.d., 6-min FST. The format is in vivo. As to the method:
FIG. 5. Porsolt Forced Swim Test (FST). Effect of Vehicle, PCP (10 mg/kg; i.p., 7 days; b.i.d.), and PCP+AJC-61 (2 mg/kg), in a 6-min Porsolt Forced Swim Test (FST).
The Porsolt Forced Swim Test (FST) is a gold standard test for antidepressant action. In the FST, normal mice become immobile after being required to swim in a tank and begin to float instead of struggling to get out of the water. […] As such, we tested whether AJC-61 could increase the swim time in a FST.

A further assay addresses 5-HT2a receptor (Homo sapiens, UniProt P28223). The experiment in a line: 2A agonist activity of selected compounds. The format is cell-based.
The target of assay [2] is T1, human serotonin receptor 2C (5-HT2c) (Homo sapiens, UniProt P28335).
T1 sequence (P28335 33-458): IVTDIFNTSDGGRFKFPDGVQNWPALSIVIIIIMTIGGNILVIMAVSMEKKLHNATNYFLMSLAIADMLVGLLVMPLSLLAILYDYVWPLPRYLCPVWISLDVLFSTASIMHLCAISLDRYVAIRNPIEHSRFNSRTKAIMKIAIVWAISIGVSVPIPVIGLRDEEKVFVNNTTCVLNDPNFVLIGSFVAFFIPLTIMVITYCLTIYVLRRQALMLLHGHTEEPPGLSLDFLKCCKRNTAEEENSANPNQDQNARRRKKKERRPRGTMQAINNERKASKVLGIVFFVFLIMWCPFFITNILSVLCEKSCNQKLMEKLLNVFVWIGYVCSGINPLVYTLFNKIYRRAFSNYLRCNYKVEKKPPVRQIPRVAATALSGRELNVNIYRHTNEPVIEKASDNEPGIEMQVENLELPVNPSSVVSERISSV
The experiment in a line: 2C agonist activity of selected compounds. The format is cell-based.

Assay [3] concerns mice. The experiment in a line: Amphetamine-induced increase in locomotor activity (LMA). The assay is classed as in vivo. To be noted: AJC-61 2 mg/kg, amphetamine 2.5 mg/kg, eight 15 minute intervals. As to the method:
FIG. 1. […] The effect of AJC-61 (2 mg/kg) on amphetamine-induced (2.5 mg/kg) increase in locomotor activity in mice.
(§1) The ability of a test drug to block the increase in Locomotor Activity (LMA) produced by amphetamine or the glutamate receptor […], phencyclidine (PCP), has a high predictive value for the antipsychotic efficacy of the test drug for treating schizophrenia. […] As such, we tested the effect of AJC-61 on reducing LMA in mice that had been treated with amphetamine or PCP to increase LMA activity.

The test system of assay [4] is mice. The experiment in a line: Marble Burying Task (MBT) in PCP-treated mice. To be noted: AJC-61 2 mg/kg; PCP 10 mg/kg i.p. 7 days b.i.d.; 30-minute MBT; listed as AJC-16. The format is in vivo. The method, then:
FIG. 6. Marble Burying Task (MBT): Effect of Vehicle, PCP (10 mg/kg; i.p., 7 days; b.i.d.), and PCP+AJC-61 (2 mg/kg) in a 30-minute Marble Burying Task (MBT) paradigm.
(§2) Marble Burying (MB) and extent of shredding a standard type of rodent bedding (i.e., Nestlet Shredding) are both proven methods for assessing drug efficacy to treat obsessive-compulsive disorder and Tourette's syndrome. As such, we tested the effect on AJC-61 on Marble Burying and Nestlet Shredding.

Assay [5] has as its target T1, human serotonin receptor 2C (5-HT2c). The experiment in a line: 2C antagonist activity of selected compounds. The assay is classed as cell-based.
For another assay, the system named is male C57BL/6J mice. The experiment in a line: Novel Object Recognition in PCP-treated mice. The assay is classed as in vivo. The conditions noted are these: AJC-61 2 mg/kg, PCP 10 mg/kg. As to the method: FIG. 3. Novel Object Recognition: Discrimination index (DI) for male C57BL/6J mice treated with Vehicle, PCP (10 mg/kg), and PCP+AJC-61 (2 mg/kg). Data are shown as mean±S.E.M. of exploration time (s) n=10 mice per group.
The Novel Object Recognition test in rodents is considered a valid model of spatial memory in man. […] Normal mice remember for ˜24 hours. The time to loss of the memory in aged mice can be as low as zero to less than 8 hours. As such, we tested the effect of AJC-61 on reducing the DI in mice that had been treated with PCP to reduce the DI.

Assay [6] concerns mice. The experiment in a line: Social Interaction in PCP-treated mice. The format is in vivo. The conditions noted are these: AJC-61 2 mg/kg; PCP 10 mg/kg i.p. 7 days b.i.d.; 10-minute paradigm. The method, then: FIG. 4. Social Interaction: Effect of Vehicle, PCP (10 mg/kg: i.p., 7 days: b.i.d.), and PCP+AJC-61 (2 mg/kg), on social behaviors (sniffling, following, and avoiding) and interaction with inanimate object (object exploration), in a 10-minute social interaction (SI) paradigm. Data were analyzed by one-way ANOVA comparing the effect of drug treatment on each behavior and are shown as mean±S.E.M. of time (s); n=10 pairs of mice per group.
A healthy mouse will vigorously explore a newly introduce mouse and retain the memory for that mouse for up to 24 hours. The loss of interest in exploring a novel mouse is considered a sign of negative symptoms.
PCP-treatment produces a deficit in social interaction which models negative symptoms in schizophrenia. These include lack of motivation, loss of interest in activities, diminished capacity for pleasure and spontaneous activity. We tested the effect of AJC-61 on Social Interaction in mice that had been treated with PCP, including a Social Behaviors that include sniffing, following, and avoiding and Object Exploration via interaction with an inanimate object.

For assay [7], the system named is mice. The experiment in a line: Nestlet Shredding (NS) in PCP-treated mice. The assay is classed as in vivo. The conditions noted are these: AJC-61 2 mg/kg; PCP 10 mg/kg i.p. 7 days b.i.d.; 30-minute NS; listed as AJC-16. As to the method:
FIG. 7. Nestlet Shredding (NS): Effect of Vehicle, PCP (10 mg/kg; i.p., 7 days; b.i.d.), and PCP+AJC-61 (2 mg/kg) in a 30-minute Nestlet Shredding (NS) paradigm.
as §2

The subject of another assay is 22-month old mice. The experiment in a line: Novel Object Recognition in aged mice. The format is in vivo. To be noted: AJC-61 2 mg/kg. The method, then: FIG. 8. Novel Object Recognition: Effect on discrimination index (DI) of Vehicle and AJC-61 (2 mg/kg) on 2.5 month old mice and 22-month old mice Data are shown as mean±S.E.M. of exploration time (s): n=14 pairs of mice per group.
Aged mice show a decline in memory function beginning around 13-15 month of age. Drugs which enhance memory can be assessed using the Novel Object Recognition test and determination of the Discrimination Index (DI) as discussed above. As such, we tested whether AJC-61 could improve the DI for aged mice (i.e., 22-month old mice) versus young mice (i.e., 2.5 month old mice).

The test system of assay [8] is mice. The experiment in a line: PCP-induced increase in locomotor activity (LMA). The assay is classed as in vivo. To be noted: AJC-61 2 mg/kg, PCP 10 mg/kg, eight 15 minute intervals. The method, then:
FIG. 2. […] The effect of AJC-61 (2 mg/kg) on PCP-induced (10 mg/kg) increase in locomotor activity in mice.
as §1

Entries after “also recorded” stand apart in the source; their conditions may differ.

Sequence of 5-HT2a receptor (P28223 whole entry): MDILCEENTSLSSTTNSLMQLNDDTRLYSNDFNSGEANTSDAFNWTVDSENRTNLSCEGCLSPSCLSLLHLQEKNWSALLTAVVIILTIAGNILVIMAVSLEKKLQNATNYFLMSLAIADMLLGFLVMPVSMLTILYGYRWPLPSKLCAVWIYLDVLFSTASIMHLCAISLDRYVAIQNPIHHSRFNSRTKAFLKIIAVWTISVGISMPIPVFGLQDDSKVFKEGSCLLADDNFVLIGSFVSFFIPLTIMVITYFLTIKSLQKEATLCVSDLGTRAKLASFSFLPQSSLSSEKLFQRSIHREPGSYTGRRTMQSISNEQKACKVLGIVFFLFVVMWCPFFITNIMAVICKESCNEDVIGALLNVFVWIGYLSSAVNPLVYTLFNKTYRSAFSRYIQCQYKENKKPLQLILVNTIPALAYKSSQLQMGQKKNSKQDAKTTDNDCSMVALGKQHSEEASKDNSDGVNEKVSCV

For `Oc1ccc2[nH]c3c(-c4cncnc4)nccc3c2c1` [AJC-61, 1-(pyrimidin-5-yl)-9H-pyrido[3,4-b]indol-6-61], the “Immobility time, PCP+AJC-61 versus PCP” value with mice [1] was “significantly decreased the immobility time”. Besides, in the assay on mice [1] (listed as AJC-16), the “Immobility time, PCP+AJC-61 versus PCP” value is reported as “Significant decrease in immobility time”. Moreover, on 5-HT2a receptor, the 2A agonist entry was “inactive”. Further, the 2C agonist result in [2] was “inactive”. Moreover, the “Effect on amphetamine-induced increase in locomotor activity” value in the assay with mice [3] is reported as “blocked amphetamine-induced increase in locomotor activity; also recorded: blocked the amphetamine-induced increase in LMA”. In addition, in the assay on mice [4], the “Number of marbles buried, PCP+AJC-61 versus PCP” value was “significant decrease in the number of marbles buried”. The same compound gave an IC50 in assay [5] above 10000 nM. Also, the “Discrimination index (DI), PCP+AJC-61 versus PCP” value in the assay with male C57BL/6J mice was “significant increase in DI”. In the assay with mice [6], the “Object exploration (inanimate object)” value is listed as “no significant change”; the “Social interaction: avoiding, PCP+AJC-61 versus PCP” value is on record as “significant decrease in avoiding”; the “Social interaction: following” value was “no significant change”; the “Social interaction: sniffing, PCP+AJC-61 versus PCP” value is recorded as “significant increase in sniffing”. Moreover, in the assay on mice [7], the “Percent nestlet shredded, PCP+AJC-61 versus PCP” value is “significant decrease in the percent nestlet shredded”. Further, the “Discrimination index (DI), AJC-61 versus Vehicle” value with 22-month old mice is on record as “significant increase in the DI”. The “Effect on PCP-induced increase in locomotor activity” value in the assay with mice [8] was “blocked PCP-induced increase in locomotor activity; also recorded: blocked the PCP-induced increase in LAM”.

On 5-HT2a receptor, `Fc1ccc2[nH]c3c(c2c1)CCNC3c1cncnc1` (stereo not drawn) [MJO-01-31] came in with an EC50 of 54.6 nM and an Emax of 95%. In [2], this compound came in with an EC50 of 10.1 nM and an Emax of 101%.

`Oc1ccc2[nH]c3c(c2c1)CCNC3c1ccccc1O` (stereo not drawn) [MJO-01-34]: the results for the EC50 (on 5-HT2a receptor; in assay [2]) were 106 nM and 85.9 nM, respectively. Moreover, the values for the Emax (at 5-HT2a receptor; in [2]) were 27% and 103%, respectively.

`Clc1ccc2[nH]c3c(c2c1)CCNC3CCc1ccccc1` (stereo not drawn) [MJO-01-46]: at 5-HT2a receptor, the midpoint of the response, the EC50, lay at 11.3 nM and the “Emax (2A agonist)” value stood at 96%. In addition, in assay [2], the EC50 was 5.37 nM and the “Emax (2C agonist)” value is recorded as 98%.

In general, IC50 refers to the concentration at which inhibition is half-maximal. A higher IC50 goes with a need for much substance. The EC50 is the midpoint of the concentration-response curve. A low value points to higher potency in that assay. In general, Emax refers to the maximal effect, on the per cent scale that the assay sets.
